We go through five compounds from patent publication US8410302B2, “Methoxyimino compounds and fungicide composition comprising same” (Kyung Nong Corporation, priority 2007, dated 2013).

Each structure is given as a SMILES string.

The test system of assay [1] is Puccinia recondita. The experiment in a line: Fungicidal activity against wheat leaf rust (WLR) disease, control value. The note with it: for pest or weed control at 2 ppm / pest or weed control at 10 ppm / pest or weed control at 50 ppm / pest or weed control at 100 ppm: Puccinia recondita, read-out: WLR control value (C.V.); for WLR control value (C.V.): wheat leaf rust. Type of assay: in vivo.

In assay [2] the test system is Erysiphae graminis. The assay can be described thus: Fungicidal activity against barley powdery mildew (BPM) disease, control value. In kind it is in vivo. The note with it: for pest or weed control at 2 ppm / pest or weed control at 10 ppm / pest or weed control at 50 ppm / pest or weed control at 100 ppm: 168 h, read-out: BPM control value (C.V.); for BPM control value (C.V.): barley powdery mildew.

Assay [3] deals with Phytophthora infestans. The assay can be described thus: whole plant or invertebrate. The conditions noted are these: for pest or weed control at 2 ppm / pest or weed control at 10 ppm / pest or weed control at 50 ppm / pest or weed control at 100 ppm: Phytophthora infestans, in Solanum lycopersicum, read-out: TLB control value (C.V.); for TLB control value (C.V.): tomato late blight. In kind it is in vivo.

Assay [4] deals with Pyricularia oryzae Carvara KA301. The assay can be described thus: whole plant or invertebrate. The note with it: for pest or weed control at 2 ppm / pest or weed control at 10 ppm / pest or weed control at 50 ppm / pest or weed control at 100 ppm: Pyricularia oryzae, read-out: RCB control value (C.V.); for RCB control value (C.V.): rice blast. In kind it is in vivo.
In assay [5] the test system is Botrytis cinerae. The assay can be described thus: Fungicidal activity against cucumber gray mold rot (CGM) disease, control value. In kind it is in vivo. The note with it: 100 ppm; for pest or weed control at 100 ppm: Botrytis, read-out: CGM control value (C.V.). As for the experimental part: Botrytis cinerae, which was isolated from cucumber infected thereby, was inoculated on a potato agar medium (PEC) and cultured under a 12L/12D cycle at 25° C. for 15 days to form spore. The spores were scraped, filtered through a gauze and then suspended in Potato Dextrose broth at a concentration of 1×10^6 spore/ml. The spore suspension was sprayed on a cucumber plant having one leaf. The cucumber plant was held in a humidified room at 20° C. for 3 days. L.A. on a leaf was measured to calculate a C.V.

Assay [6] concerns Rhizoctonia solani AG-1. The experiment in a line: Fungicidal activity against rice sheath blight (RSB) disease, control value. The conditions noted are these: for pest or weed control at 2 ppm / pest or weed control at 10 ppm / pest or weed control at 50 ppm / pest or weed control at 100 ppm: Rhizoctonia solani, AG1, in Oryza sativa, read-out: RSB control value (C.V.); for RSB control value (C.V.): rice sheath blight.

For `CCOc1cc(C=C(Cl)Cl)ccc1OCc1ccccc1/C(=N\OC)C(=O)NC` [Example 60, (E)-2-(2-((4-(2,2-dichlorovinyl)-2-ethoxyphenoxy)methyl)phenyl)-2-methoxyimino-N-methylacetamide], the pest or weed control at 2 ppm stood at 95% in assay [1] (2 ppm); 95% in assay [2] (2 ppm); 70% in assay [3]; 80% in assay [4]; 98% in assay [6]. In addition, the pest or weed control at 10 ppm in assay [1] (10 ppm) stood at 100%; in assay [2] (10 ppm) it was 98%; in assay [3] it was 92%; in assay [4] it was 96%; in assay [6], 100%. The pest or weed control at 50 ppm in assay [1] (50 ppm) turned out to be 100%; in assay [2] (50 ppm), 100%; in assay [3], 95%; in assay [4], 100%; in assay [6] it was 100%. Further, the pest or weed control at 100 ppm in assay [1] (100 ppm) was found to be 100%; in assay [2] (100 ppm), 100%; in assay [3], 100%; in assay [4], 100%; in assay [5] it was 45%; in assay [6] it was 100%.

`CNC(=O)/C(=N/OC)c1ccccc1COc1ccc(C=C(Cl)Cl)c(Cl)c1` [Example 58, (E)-2-(2-((3-chloro-4-(2,2-dichlorovinyl)phenoxy)methyl)phenyl)-2-methoxyimino-N-methylacetamide]: the pest or weed control at 2 ppm in assay [1] (2 ppm) is 100%; in assay [2] (2 ppm), 100%; in assay [3], 99%; in assay [4], 100%; in assay [6] it was 90%. Moreover, the pest or weed control at 10 ppm in assay [1] (10 ppm), in assay [2] (10 ppm), in assay [3], in assay [4] and in assay [6] was 100% throughout. The pest or weed control at 50 ppm in assay [1] (50 ppm), in assay [2] (50 ppm), in assay [3], in assay [4] and in assay [6] was 100% in each case. Moreover, the pest or weed control at 100 ppm was 100% in assay [1] (100 ppm); 100% in assay [2] (100 ppm); 100% in assay [3]; 100% in assay [4]; 35% in assay [5]; 100% in assay [6].

Take `CO/N=C(/C(=O)OC)c1ccccc1COc1ccc(C=C(Br)Br)cc1Br` [Example 77, methyl-(E)-2-(2-((2-bromo-4-(2,2-dibromovinyl)phenoxy)methyl)phenyl)-2-methoxyiminoacetate]: the pest or weed control at 2 ppm in assay [1] (2 ppm) was 95%; in assay [2] (2 ppm), 90%; in assay [3] it was 70%; in assay [4], 30%; in assay [6] it was 65%. Further, the pest or weed control at 10 ppm came out at 100% in assay [1] (10 ppm); 100% in assay [2] (10 ppm); 90% in assay [3]; 90% in assay [4]; 98% in assay [6]. Moreover, the pest or weed control at 50 ppm in assay [1] (50 ppm) stood at 100%; in assay [2] (50 ppm), 100%; in assay [3] it was 98%; in assay [4], 100%; in assay [6], 100%. Besides, the pest or weed control at 100 ppm was 100% in assay [1] (100 ppm); 100% in assay [2] (100 ppm); 100% in assay [3]; 100% in assay [4]; 70% in assay [5]; 100% in assay [6].

As for `CNC(=O)/C(=N/OC)c1ccccc1CON=C(C)c1cccc(C=C(Cl)Br)c1` [Example 36, (E)-2-[[[[[2-[3-(2-bromo-2-chlorovinyl)phenyl](1-methyl)methylidene]amino]oxy]methyl]phenyl]-2-methoxyimino-N-methylacetamide], the “WLR control value (C.V.)” value in assay [1] (2 ppm), in assay [1] (10 ppm), in assay [1] (50 ppm) and in assay [1] (100 ppm) was 100% in each case. For the same compound, the “BPM control value (C.V.)” value in assay [2] (2 ppm), in assay [2] (10 ppm), in assay [2] (50 ppm) and in assay [2] (100 ppm) was 100% throughout. For the same compound, the “TLB control value (C.V.)” value stood at 30% in assay [3] (2 ppm), 80% in assay [3] (10 ppm), 100% in assay [3] (50 ppm) and 100% in assay [3] (100 ppm). The “RCB control value (C.V.)” value in assay [4] (2 ppm), in assay [4] (10 ppm), in assay [4] (50 ppm) and in assay [4] (100 ppm) was 100% in each case. Besides, the “CGM control value (C.V.)” value in assay [5] (cucumber gray mold rot) was 65%. The “RSB control value (C.V.)” value was determined as 67% in assay [6] (2 ppm), 90% in assay [6] (10 ppm), 98% in assay [6] (50 ppm) and 100% in assay [6] (100 ppm).

Turning to `CCOc1cc(C=C(Cl)Cl)ccc1OCc1ccccc1/C(=N\OC)C(=O)OC` [Example 59, methyl-(E)-2-(2-((4-(2,2-dichlorovinyl)-2-ethoxyphenoxy)methyl)phenyl)-2-methoxyiminoacetate], the pest or weed control at 2 ppm in assay [1] (2 ppm) stood at 90%; in assay [2] (2 ppm) it was 98%; in assay [3], 98%; in assay [4], 97%; in assay [6], 98%. Further, the pest or weed control at 10 ppm in assay [1] (10 ppm), in assay [2] (10 ppm), in assay [3], in assay [4] and in assay [6] was 100% throughout. Further, the pest or weed control at 50 ppm in assay [1] (50 ppm), in assay [2] (50 ppm), in assay [3], in assay [4] and in assay [6] was 100% in each case. The pest or weed control at 100 ppm in assay [1] (100 ppm) was 100%; in assay [2] (100 ppm), 100%; in assay [3], 100%; in assay [4], 100%; in assay [5], 65%; in assay [6] it was 100%.
